The source of these data is patent publication US20200038348A1, “METHODS AND MATERIALS FOR REDUCING SCAR FORMATION DURING WOUND HEALING” (Mayo Foundation for Medical Education and Research, priority 2017, published 2020).

One data set concerns SPP1 promoter. The data set can be described thus: Dual-Glo luciferase reporter screen of SPP1 promoter activity (LOPAC library). It counts as cell-based. An excerpt: (A) Schematic representation of the DuoGlo construct used for high throughput compound screening. (B-C) SPP1 promoter activity after exposure of WM858 Dual-Glo cells to Vitamin D (B) or retinoid (C).
(§1) SPP1 is a pro-inflammatory inducer of skin fibrosis and skin aging. […] To screen for transcriptional silencers of SPP1 expression, cells with high endogenous SPP1 expression (e.g., melanoma cells) were identified. Then, the endogenous SPP1 promoter was tagged in melanoma cells with a dual luciferase reporter to create Dual-Glo cells using a genome editing approach. Firefly luciferase was introduced to assay SPP1 promoter activity; renilla luciferase was coupled to the CMV promoter as a loading control (FIG. 1A).
(In general: In a reporter assay the amount or activity of a reporter protein is the signal.)

In data set [1] the test system is hypertrophic scar formation. The data set can be described thus: hypertrophic scar formation, ischemic rabbit ear model, topical treatment. It is filed as in vivo. On the procedure:
Topical pentamidine was evaluated using a hypertrophic scar formation rabbit ear model. Briefly, surgical ligation of leporine auricular vessels induced an ischemic landscape for hypertrophic scar production. Specifically, a cranial artery and vein were ligated; the caudal artery and vein were preserved; and the central artery was ligated, while the central vein was preserved in the rabbit ear (FIG. 2).
All surgeries were conducted in a disinfected area designated for surgical procedures and equipped with necessary lighting and equipment. Briefly, rabbits received intramuscular buprenorphine and enrofloxicin (5-10 mg/kg) prior to the surgery. Anesthesia was induced by a mixture of ketamine and intramuscular xylazine and monitored by medical sciences support staff. Study staff performed surgeries using sterile instruments, drapes, gloves, and gown. Following vascular ligation, one linear full-thickness skin wound was created on the ventral side of each ear with a surgical blade. The skin and perichondrium were removed. The base on which granulation and epithelialization take place was the cartilage. The edges of the wound were closed with 4-0 Nylon sutures.
Following ischemic wounding, the relative ischemia created in the ear at time of surgery and time of sacrifice was assessed with a fluorescent light assisted angiography (Spy Elite, LifeCell). Perfusion of the ear was assessed using the Spy Elite system following intravenous administration of indocyanine green, which utilizes infrared light to detect the dye (FIG. 3).
Following vascular ligation and linear wounding, a sterile occlusive dressing (TegaDerm, 3M) was used to cover the wound site. Animals were allowed to recover for three days without wound disturbance. After 72 hours, the dressing was changed, and the treatment was initiated. […] Daily dressing changes occurred until day 28. About 1/8 teaspoon ([…]) of the treatment agent was applied with each dressing change. Rabbits were trained on the animal snuggler for ease during treatment application.
Animals were monitored daily for any signs of postoperative discomfort, wound infection, weight loss, loss of appetite, and loss of contracture fixation. Any complications such as cage sores, wound infections, weight loss, or wound dehiscence were reviewed with the veterinarian and managed in a way designed to minimize discomfort or suffering. […] Six rabbits were used in this study. For three rabbits, the left ear received Treatment Group 1 (n=3), and the right ear received Treatment Group 2 (n=3). […] One rabbit was excluded from the study due to wound infection:
(§2) Female New Zealand white rabbit ears were used. In total, twelve linear wounds were created using minimally invasive vascular ligation in auricular blood vessels to create ischemic hypertrophic scars. Following surgical ligation, linear wounds were treated with either osteopontin inhibitor 2% topical pentamidine (n=6; left ear) or base only (n=6; right ear) for four weeks. After the treatment period, samples were fixed in 10% formaldehyde, embedded in paraffin and stained for p16 expression.
Female New Zealand white rabbits ears were used. In total, twelve linear wounds were created using minimally invasive vascular ligation in auricular blood vessels to create ischemic hypertrophic scars. Following surgical ligation, linear wounds were treated with the following dose titration: 0.5% pentamidine (n=3); 1% pentamidine (n=3); 2% pentamidine (n=3); or 5% pentamidine (n=3). […]

In the next data set the test system is p16. As to the kind of experiment: p16 expression staining in rabbit ear skin after topical treatment. It is filed as in vivo. To be noted: 2% topical pentamidine versus base only, four weeks, n=6 per group. As for the experimental part:
as §2

The subject of a further data set is WM858 Dual-Glo cells. As to the kind of experiment: in vitro cell toxicity in the SPP1 screen. It is filed as cell-based. Particulars: in the SPP1 promoter screen.
Text: as §1

For data set [2] the following is noted: cited from earlier work.

“Also recorded” adds a separate entry of the source.

For Vitamin D, the “effect on SPP1 promoter activity” value in the data set on SPP1 promoter (WM858 Dual-Glo cells) is given as “activated”.
For the molecule `N=C(N)c1ccc(OCCCCCOc2ccc(C(=N)N)cc2)cc1` [pentamidine, 4,4′-[pentane-1,5-diylbis(oxy)]dibenzenecarboximidamide], the hypertrophic scar formation result in data set [1] (0.5% pentamidine, n=3) is listed as “no response to minimal reduction”; in data set [1] (1% pentamidine, n=3) it was “no response to minimal reduction”; in data set [1] (2% pentamidine in Pracasil-Plus base, daily, four weeks), “Minimal hypertrophic scaring; also recorded: significantly inhibited hypertrophic scar formation; also recorded: observable scar reduction”. Also, the “re-epithelization of the wound” value in data set [1] (2% pentamidine, n=3) is “Effective re-epithelization”. For the same molecule, in data set [1] (5% pentamidine, n=3), the “wound outcome at high dose” value was “non-healing wound and abscess formation”. Also, the “p16 expression levels in dermal and epidermal regions” value in the data set with p16 is on record as “decreased p16 levels; also recorded: reduced p16 expression levels”. Moreover, the “inhibition of SPP1 promoter activity” value in the data set with SPP1 promoter (Dual-Glo melanoma cells, firefly luciferase at the SPP1 promoter, renilla/CMV as loading control) is on record as “greater than 80%”. For the same molecule, the “in vitro cell toxicity” value in the data set on WM858 Dual-Glo cells is “minimal in vitro cell toxicity”.
With `N=C(N)c1ccc(OCCCCCOc2ccc(C(=N)N)cc2)cc1` [Pentamidine isethionate, 4,4-[1,5-pentanediylbis(oxy)]bis-benzenecarboximidamid], in data set [2] (acetone), the solubility in acetone result is listed as “insoluble”. The solubility in alcohol entry in data set [2] (alcohol) is “soluble”. In data set [2] (chloroform), the solubility in chloroform entry is on record as “insoluble”. For the same molecule, in data set [2] (ether), the solubility in ether result is “insoluble”. In data set [2] (glycerin), the solubility in glycerin entry is on record as “soluble”. Further, the solubility in water result in data set [2] (water) is recorded as “soluble”.
